In patent publication US20200188361A1, “USE OF MITOCHONDRIAL ACTIVITY INHIBITORS FOR THE TREATMENT OF POOR PROGNOSIS ACUTE MYELOID LEUKEMIA” (UNIVERSITE DE MONTREAL, priority 2016, published 2020):
pEC50: −log10 of the molar value.

Tests used:
[1] = test system: Normal primitive CD34-positive cord blood cells; assay: cells; conditions: Homo sapiens, read-out: EC50 in normal primitive CD34-positive cord blood cells
Procedure: (§1) Patient cells were seeded in 384-well plates at a density of 5,000 cells in 50 μL per well. In the initial screen, compounds were added to seeded cells in serial dilutions (10 dilutions, 1:3, starting from 10 μM or 20 μM), in duplicates. Cells treated with 0.1% DMSO without additional compound were used as negative controls. Viable cell counts per well were evaluated after 6 days of culture using the CellTiterGlo® assay (Promega®) according to the manufacturer's instruction. The percent of inhibition was calculated as follows: 100−(100×(mean luminescence(compound)/mean luminescence(DMSO)); where mean-luminescence(compound) corresponds to the average of luminescent signals obtained for the compound-treated cells, and mean-luminescence(DMSO) corresponds to the average of luminescent signals obtained for the control DMSO-treated cells.

OCI-AML3 cells = assay: Dose-response curves in AML cell line (6-day culture assay in 384-well plates); format: cell-based; conditions: FIG. 4E
Procedure: FIGS. 5A-5J show the results on experiments assessing the mode of action of Mubritinib for mediating tumor cell death. FIG. 5A: OCI-AML3 leukemic cells were either pre-incubated for 4 hours with 6 mM N-acetyl-cysteine (NAC), a reactive oxygen species (ROS) scavenger, or with vehicle (water) before being treated with 100 nM Mubritinib for 24 h or vehicle (DMSO). […] FIGS. 5C and 5D show the levels of reduced and oxidized levels of glutathione, respectively, in OCI-AML3 treated or not with Mubritinib, as detected by liquid chromatography-mass spectrometry (LC/MS). […] FIG. 5G is a graph depicting dose-response curves upon Mubritinib treatment (6-day culture assay in 384-well plates) of OCI-AML3 and OCI-AML5 cell lines. FIGS. 5H-J are graphs depicting dose-response curves following treatment of OCI-AML3 and OCI-AML5 cell lines with other ETC inhibitors, namely Oligomycin (inhibitor of complex V, FIG. 5H), Rotenone (inhibitor of complex I, FIG. 5I) and Deguelin (inhibitor of complex I, FIG. 5J).
OCI-AML3 cells were maintained in alpha-MEM, 20% FBS whereas breat tumor BT474 cells were maintained in DMEM 10% FBS.
as §1

OCI-AML3 leukemic cells = conditions: acute injection, 1 μM (FIG. 5E)
Procedure: Oxygen consumption rates and extracellular acidification rates were measured using a 96-well Seahorse Bioanalyzer XFe96® or XFe24® according to the manufacturer's instructions (Agilent Technologies). Seahorse XF Base medium was supplemented with 1 mM pyruvate, 2 mM glutamine and 10 mM glucose in the case of Mitochondrial Stress Test and with 1 mM pyruvate, 2 mM glutamine and no glucose in the case of Glycolytic Stress Test. The pH of the Seahorse media was then adjusted at 7.4 prior to assay. In brief, leukemic cells were seeded into Seahorse 96-well (or 24-well) plates pre-coated for 3 h with poly-lysine (Sigma-Aldrich, P4707) at a density of 75,000 cells/well in 100 μL (or 150,000 cells/well, in 150 μL) of temperature/CO2 pre-adjusted Seahorse media per well. The Seahorse plates were then centrifuged at 1400 rpm for 5 min. An additional 75 μL (or 375 μL) of Seahorse media was then added and cells were eventually analyzed following the manufacturer's instructions by adding compounds in a constant volume of 25 μL (or 75 μL). Compounds were acutely injected in cells at a final concentration of 1 μM for Mubritinib, 1 μM for Oligomycin, 0.5 μM for FCCP, 0.5 μM for Rotenone/Antimycin A, Glucose 10 mM and 2-Deoxy-Glucose 50 mM.

## FC(F)(F)c1ccc(/C=C/c2nc(COc3ccc(CCCCn4ccnn4)cc3)co2)cc1 [Mubritinib, 1-(4-{4-[(2-{(E)-2-[4-(trifluoromethyl)phenyl]ethenyl}-1,3-oxazol-4-yl)methoxy]phenyl}butyl)-1H-1,2,3-triazole]
[1]
  pEC50: < 6.43
OCI-AML3 cells
  sensitivity of OCI-AML3 cells (dose response curves): sensitive
OCI-AML3 leukemic cells
  oxygen consumption rate: impaired oxygen consumption rate
